According to patent US20250009856A1, “METHODS FOR TREATING RESPIRATORY DISEASES” (MUCPharm Pty Ltd, priority 2021, published 2025):
Several values for one entry are separate records, joined by “and”; a condition that tells them apart may be missing. Equal entries are not always repeated.

Columns and labels:
[1] = Dynamic viscosity (capillary tube) after aerosol treatment; parameters: species or system human; settings: SS; for Dynamic viscosity (γ), After: before 1.748 ± 0.006
Description: Six grams of soft PMP mucin was homogenised using a shredder with phosphate buffer saline (PBS) (3.0 ml) with sonification and vortexed until a homogenous mixture was formed, with incubation at 37° C. to remove air bubbles and after which viscosity was adjusted (further dilutions with PBS). The pH was adjusted to 7.0 using either 1.0 M NaOH or 0.1 N Hydrochloric acid. Dynamic viscosity (Y) of sputum was measured using the capillary tube method as outlined in […]. and G. Castellano, Determination of the kinematic viscosity by the liquid rise in a capillary tube. […] Ensino de Física, 2013. 35. A similar investigation as above was carried out to determine a comparative dynamic viscosity and pipette flow time for PMP mucin simulated sputa (SS). A similar treatment as in the experiment described above for NAC was carried out using Bromelain (125 and 250 μg/ml) in PBS (pH.7.0) along with control using PBS (pH.7.0). Both dynamic viscosity and pipette flow time was measured as outlined earlier for both artificial and PMP simulated sputa models. Using a combination of NAC (20 mg/ml) with either 125 or 250 μg/ml Bromelain in PBS (pH.7.0), a similar investigation was carried out as outlined earlier and measurements were made for both artificial and simulated sputa models. D=(TREATED)-(UNTREATED/(UNTREATED)×100.

[2] = Particle size distribution of aerosols by laser diffraction, Pari LC Sprint nebulizer; type: physicochemical; settings: mean
Description: The particle size distributions (PSD) of 5 formulations containing bromelain and acetylcysteine at different concentrations were determined. The formulations were aerosolized using a PARI TurboBOY SX compressor, combined with the Pari LC Sprint nebulizer (PARI GmbH, USA). The nebulizer was connected to a USP induction port (throat), and particle size was measured at flow rate of 15 L/min in Spraytec particle sizer (Malvern Instruments, Malvern, UK). Measurements were performed in triplicate. Results are expressed as D10, D50 and D90, indicating the particle diameter at 10, 50 and 90% in the cumulative distribution.
The formulations were prepared in saline (0.9% w/v) and kept at −20° C. prior to analysis. The formulations tested were: • 1. Control: Saline (sodium chloride 0.9% w/v) • 2. Low Concentration of Ac (8 mg/mL) • 3. High Concentration of Ac (60 mg/mL) • 4. Brom at 50 μg/mL • 5. Combination 1: Low Ac (8 mg/mL)+Brom (50 μg/mL) • 6. Combination 2: High Ac (60 mg/mL)+Brom (50 μg/mL)

[3] = Dynamic viscosity (capillary tube) after aerosol treatment; settings: AS; for Dynamic viscosity (γ), After: before 1.382 ± 0.013
Description: Artificial sputum was prepared following protocol as detailed by […] et al (Kirchner, S., et al., Use of artificial sputum medium to test antibiotic efficacy against Pseudomonas aeruginosa in conditions more relevant to the cystic fibrosis lung. Journal of visualized experiments: JOVE, 2012 (64)). Briefly 250 mg of porcine mucin, 200 mg of sperm DNA, 295 mg of diethylene triamine pentaacetic acid (DPTA), 25 mg sodium chloride, 110 mg potassium chloride, 140 mg Tris base were mixed in a volume of 45 ml of distilled water and pH adjusted to 7.0 using Trisbase. The volume of the solution was then adjusted to 50 ml. Further dilutions were then carried out to adjust viscosity as desired. Dynamic viscosity (Y) of sputum was measured using the capillary tube method as outlined in […]. and G. Castellano, Determination of the kinematic viscosity by the liquid rise in a capillary tube. […] Ensino de Física, 2013. 35. Artificial sputa (AS) were prepared as detailed above, and 1.5 ml of artificial sputum was carefully emptied into an endotracheal tube (in triplicates). A volume of 6.0 ml of NAC 10 mg/ml in PBS (pH.7.0) in triplicate was aerosolised using a nebulizer and passed over the sputum samples in the endotracheal tubes kept at 37° C. in a water bath. Similarly, the experiments were repeated using NAC 20 mg/ml in PBS (pH.7.0). The controls only received PBS (pH 7.0). The aerosol delivery time to empty 6.0 ml for each treatment was 25 min. The dynamic viscosity of the sputa was measured before and after using the capillary tube method, whilst the pipette flow time was also measured as described earlier using a 0.5 ml glass pipette. Samples were equilibrated to 25° C. before measurement A similar treatment as in the experiment described above for NAC was carried out using Bromelain (125 and 250 μg/ml) in PBS (pH.7.0) along with control using PBS (pH.7.0). Both dynamic viscosity and pipette flow time was measured as outlined earlier for both artificial and PMP simulated sputa models. Using a combination of NAC (20 mg/ml) with either 125 or 250 μg/ml Bromelain in PBS (pH.7.0), a similar investigation was carried out as outlined earlier and measurements were made for both artificial and simulated sputa models. D=(TREATED)-(UNTREATED/(UNTREATED)×100.

CC(=O)N[C@@H](CS)C(=O)O [NAC, N-acetylcysteine]
D (%), decrease of dynamic viscosity (γ) ([1]; aerosol NAC 10 mg/ml): 16% and 16 ↓ %
Dynamic viscosity (γ), After ([1]; aerosol NAC 10 mg/ml): 1.467 ± 0.011 cSt
D (%), decrease of dynamic viscosity (γ) ([1]; aerosol NAC 20 mg/ml): 17% and 17 ↓ %
Dynamic viscosity (γ), After ([1]; aerosol NAC 20 mg/ml): 1.453 ± 0.055 cSt
D10 ([2]; NAC 8 mg/mL in saline): 1.19 µm
D50 ([2]; NAC 8 mg/mL in saline): 3.26 μm
D90 ([2]; NAC 8 mg/mL in saline): 8.23c
D10 ([2]; NAC 60 mg/mL in saline): 1.12 µm
D50 ([2]; NAC 60 mg/mL in saline): 2.87b μm
D90 ([2]; NAC 60 mg/mL in saline): 7.47 µm
D (%), decrease of dynamic viscosity (γ) ([3]; aerosol NAC 10 mg/ml): 6.0% and 6.0 ↓ %
Dynamic viscosity (γ), After ([3]; aerosol NAC 10 mg/ml, 6.0 ml over 25 min, 37° C.): 1.300 ± 0.002 cSt
D (%), decrease of dynamic viscosity (γ) ([3]; aerosol NAC 20 mg/ml): 9.8% and 10% and 9.8 ↓ %
Dynamic viscosity (γ), After ([3]; aerosol NAC 20 mg/ml): 1.247 ± 0.041 cSt
